Experimental findings from EP2951180B1, “2,6,7,8 SUBSTITUTED PURINES AS HDM2 INHIBITORS” (Merck Sharp & Dohme Corp., priority 2013, dated 2014) are described below.

T1 sequence (Q00987 17-125): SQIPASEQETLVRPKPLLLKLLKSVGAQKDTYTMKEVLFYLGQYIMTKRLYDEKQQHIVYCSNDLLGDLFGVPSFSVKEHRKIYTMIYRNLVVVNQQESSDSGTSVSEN

One assay has as its target T1, HDM2 (Homo sapiens, UniProt Q00987).
T1 construct: Thioredoxin (N); made in house; host or cells: E. coli strain BL21(DE3)Rosetta
Put plainly: HDM2 FRET assay (inhibition of binding of FITC labeled p53-pocket peptide to HDM2). The note with it: Table 17.2; read-out: FRET IC50. An outline of the steps:
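Final: 0.5 nM His-HDM2, 3 nM FITC peptide, 0.25 nM Tb anti-His Ab; PBS, 0.01% BSA, 0.01% Tween-20; 0.1% DMSO.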
With `C[C@@H]1CN(C(=O)C(C)(C)C)CCN1c1nc2nc(-c3noc(=O)[nH]3)nc(N[C@H](C)C3CCC3)c2n1C[C@H]1CC[C@H](C)CC1` [Example 17.15, 3-(6-{[(1R)-1-cyclobutylethyl]amino}-8-[(2R)-4-(2,2-dimethylpropanoyl)-2-methylpiperazin-1-yl]-7-[(trans-4-methylcyclohexyl)methyl]-7H-purin-2-yl)-1,2,4-oxadiazol-5(4H)-one], the IC50 (commonly the point on the concentration scale where inhibition reaches its midpoint) came out at 0.0043 µM. `C[C@@H]1CN(C(=O)C2CC2)CCN1c1nc2nc(-c3noc(=O)[nH]3)nc(N[C@H](C)C3CCC3)c2n1C[C@H]1CC[C@H](C)CC1` [Example 17.16, 3-(6-{[(1R)-1-cyclobutylethyl]amino}-8-[(2R)-4-(cyclopropylcarbonyl) -2-methylpiperazin-1-yl]-7-[(trans-4-methylcyclohexyl)methyl]-7H-purin-2-yl)-1,2,4-oxadiazol-5(4H)-one]: the IC50 was 0.00122 µM. For `CC(C)S(=O)(=O)N1CCN(c2nc3nc(-c4noc(=O)[nH]4)nc(N[C@H](C)C4CCC4)c3n2C[C@H]2CC[C@H](C)CC2)[C@H](C)C1` [Example 17.17, 3-(6-{[(1R)-1-cyclobutylethyl]amino}-7-[(trans-4-methylcyclohexyl)methyl]-8-{(2R)-2-methyl-4-[(1-methylethyl)sulfonyl]piperazin-1-yl}-7H-purin-2-yl)-1,2,4-oxadiazol-5(4H)-one], the IC50 was 0.0101 µM.

Turning to `C[C@@H]1CN(C(=O)CO)CCN1c1nc2nc(-c3noc(=O)[nH]3)nc(N[C@H](C)C3CCC3)c2n1C[C@H]1CC[C@H](C)CC1` [Example 17.18, 3-(6-{[(1R)-1-cyclobutylethyl]amino}-8-[(2R)-4-(hydroxyacetyl)-2-methylpiperazin-1-yl]-7-[(trans-4-methylcyclohexyl)methyl]-7H-purin-2-yl)-1,2,4-oxadiazol-5(4H)-one], the IC50 was 0.00379 µM. Turning to `C[C@@H]1CNCCN1c1nc2nc(-c3noc(=O)[nH]3)nc(N[C@H](C)C3CCC3)c2n1C[C@H]1CC[C@H](C)CC1` [Example 17.19, 3-(6-{[(1R)-1-cyclobutylethyl]amino}-7-[(trans-4-methylcyclohexyl)methyl]-8-[(2R)-2-methylpiperazin-1-yl]-7H-purin-2-yl)-1,2,4-oxadiazol-5(4H)-one], the IC50 was found to be 0.0155 µM. `C[C@@H]1CN(C(=O)OC(C)(C)C)[C@@H](C)CN1c1nc2nc(-c3noc(=O)[nH]3)nc(N[C@H](C)C3CCC3)c2n1C[C@H]1CC[C@H](C)CC1` [Example 17.20, tert-butyl (2S,5R)-4-[6-{[(1R)-1-cyclobutylethyl]amino}-7-[(trans-4-methylcyclohexyl)methyl]-2-(5-oxo-4,5-dihydro-1,2,4-oxadiazol-3-yl)-7H-purin-8-yl]-2,5-dimethylpiperazine-1-carboxylate]: the IC50 is 0.0147 µM.

In the case of `C[C@@H]1CN[C@@H](C)CN1c1nc2nc(-c3noc(=O)[nH]3)nc(N[C@H](C)C3CCC3)c2n1C[C@H]1CC[C@H](C)CC1` [Example 17.21, 3-(6-{[(1R)-1-cyclobutylethyl]amino}-8-[(2R,5S)-2,5-dimethylpiperazin-1-yl]-7-[(trans-4-methylcyclohexyl)methyl]-7H-purin-2-yl)-1,2,4-oxadiazol-5(4H)-one], the IC50 worked out at 0.0201 µM. Consider `CC(=O)N1C[C@@H](C)N(c2nc3nc(-c4noc(=O)[nH]4)nc(N[C@H](C)C4CCC4)c3n2C[C@H]2CC[C@H](C)CC2)C[C@@H]1C` [Example 17.22, 3-{8-[(2R,5S)-4-acetyl-2,5-dimethylpiperazin-1-yl]-6-{[(1R)-1-cyclobutylethyl]amino}-7-[(trans-4-methylcyclohexyl)methyl]-7H-purin-2-yl}-1,2,4-oxadiazol-5(4H)-one], for which the IC50 was 0.00435 µM. Turning to `C[C@@H]1CN(C(=O)C2CC2)[C@@H](C)CN1c1nc2nc(-c3noc(=O)[nH]3)nc(N[C@H](C)C3CCC3)c2n1C[C@H]1CC[C@H](C)CC1` [Example 17.23, 3-(6-{[(1R)-1-cyclobutylethyl]amino}-8-[(2R,5S)-4-(cyclopropylcarbonyl) -2,5-dimethylpiperazin-1-yl]-7-[(trans-4-methylcyclohexyl)methyl]-7H-purin-2-yl)-1,2,4-oxadiazol-5(4H)-one], the IC50 was determined as 0.00488 µM.

Still in this assay, the particulars now being: Table 18; read-out: FRET IC50.
With `CC(C)c1ccnc(-c2nc3nc(C(=O)O)nc(N[C@H](C)C4CCC4)c3n2C[C@H]2CC[C@H](C(F)(F)F)CC2)c1` [Example 18.1, 6-(((R)-1-cyclobutylethyl)amino)-8-(4-isopropylpyridin-2-yl)-7-((trans-4-(trifluoromethyl)cyclohexyl)methyl)-7H-purine-2-carboxylic acid], the IC50 is 0.00346 µM. For the compound `CC(C)c1ccnc(-c2nc3nc(C(=O)O)nc(N[C@H](C)C4CCC4)c3n2CC2CCC(F)(F)CC2)c1` [Example 18.3, (R)-6-((1-cyclobutylethyl)amino)-7-((4,4-difluorocyclohexyl)methyl)-8-(4-isopropylpyridin-2-yl)-7H-purine-2-carboxylic acid], the IC50 stood at 0.0574 µM. Consider `CCC1CCC(Cn2c(-c3cc(C(C)C)ccn3)nc3nc(-c4noc(=O)[nH]4)nc(N[C@H](C)C4CCC4)c32)C1` (stereo partly drawn) [Example 18.4, 3-(6-(((R)-1-cyclobutylethyl)amino)-7-((3-ethylcyclopentyl)methyl) -8-(4-isopropylpyridin-2-yl)-7H-purin-2-yl)-1,2,4-oxadiazol-5(4H)-one], for which the IC50 worked out at 0.131 µM. Take `CC1=CCC(Cn2c(-c3cc(C(C)C)ccn3)nc3nc(C(=O)O)nc(N[C@H](C)C4CCC4)c32)CC1` (stereo partly drawn) [Example 18.5, 6-(((R)-1-cyclobutylethyl)amino)-8-(4-isopropylpyridin-2-yl)-7-((4-methylcyclohex-3-en-1-yl)methyl)-7H-purine-2-carboxylic acid]: the IC50 was 0.00648 µM. Take `CCC1=CCC(Cn2c(-c3cc(C(C)C)ccn3)nc3nc(C(=O)O)nc(N[C@H](C)C4CCC4)c32)CC1` (stereo partly drawn) [Example 18.6, 6-(((R)-1-cyclobutylethyl)amino)-7-((4-ethylcyclohex-3-en-1-yl)methyl)-8-(4-isopropylpyridin-2-yl)-7H-purine-2-carboxylic acid]: the IC50 worked out at 0.0159 µM. For `CCC1=CCC(Cn2c(-c3cc(C(C)C)ccn3)nc3nc(-c4noc(=O)[nH]4)nc(N[C@H](C)C4CCC4)c32)CC1` (stereo partly drawn) [Example 18.7, 3-(6-(((R)-1-cyclobutylethyl)amino)-7-((4-ethylcyclohex-3-en-1-yl)methyl)-8-(4-isopropylpyridin-2-yl)-7H-purin-2-yl)-1,2,4-oxadiazol-5(4H)-one], the IC50 turned out to be 0.044 µM. The same measure, in the same setting: with `CC(C)c1ccnc(-c2nc3nc(C(=O)O)nc(N[C@H](C)C4CCC4)c3n2CC2CCC(C)(C)CC2)c1` [Example 18.8, (R)-6-((1-cyclobutylethyl)amino)-7-((4,4-dimethylcyclohexyl)methyl)-8-(4-isopropylpyridin-2-yl)-7H-purine-2-carboxylic acid] the figure was 0.0595 µM. Take `CC(C)c1ccnc(-c2nc3nc(-c4noc(=O)[nH]4)nc(N[C@H](C)C4CCC4)c3n2CC2CCC(C)(C)CC2)c1` [Example 18.9, (R)-3-(6-((1-cyclobutylethyl)amino)-7-((4,4-dimethylcyclohexyl)methyl)-8-(4-isopropylpyridin-2-yl)-7H-purin-2-yl)-1,2,4-oxadiazol-5(4H)-one]: the IC50 came to 0.394 µM. The same measure, in the same setting: the value for `CC(C)c1ccnc(-c2nc3nc(C(=O)O)nc(N[C@H](C)C4CCC4)c3n2C[C@H]2CC[C@H](CF)CC2)c1` [Example 18.10, 6-(((R)-1-cyclobutylethyl)amino)-7-((trans-4-(fluoromethyl)cyclohexyl)methyl)-8-(4-isopropylpyridin-2-yl)-7H-purine-2-carboxylic acid] was 0.00938 µM. Turning to `CC[C@H]1CC[C@H](Cn2c(-c3cccc(C)c3)nc3nc(C(=O)O)nc(N[C@H](C)C4CCC4)c32)CC1` [Example 18.15, 6-{[(1R)-1-cyclobutylethyl]amino}-7-[(trans-4-ethylcyclohexyl)methyl]-8-(3-methylphenyl)-7H-purine-2-carboxylic acid], the IC50 was 0.201 µM. Same read-out and setting: the value for `CC[C@H]1CC[C@H](Cn2c(-c3cc(C)ccc3OC)nc3nc(C(=O)O)nc(N[C@H](C)C4CCC4)c32)CC1` [Example 18.16, 6-{[(1R)-1-cyclobutylethyl]amino}-7-[(trans-4-ethylcyclohexyl)methyl]-8-(2-methoxy-5-methylphenyl)-7H-purine-2-carboxylic acid] was 0.0318 µM.

Turning to `CC[C@H]1CC[C@H](Cn2c(N3CCCCC3)nc3nc(C(=O)O)nc(N[C@H](C)C4CCC4)c32)CC1` [Example 18.18, 6-{[(1R)-1-cyclobutylethyl]amino}-7-[(trans-4-ethylcyclohexyl)methyl]-8-piperidin-1-yl-7H-purine-2-carboxylic acid], the IC50 was 0.0086 µM.

As for `CC[C@H]1CC[C@H](Cn2c(N3CCOCC3)nc3nc(C(=O)O)nc(N[C@H](C)C4CCC4)c32)CC1` [Example 18.19, 6-{[(1R)-1-cyclobutylethyl]amino}-7-[(trans-4-ethylcyclohexyl)methyl]-8-morpholin-4-yl-7H-purine-2-carboxylic acid], the IC50 is 0.0131 µM.

On to `CC[C@H]1CC[C@H](Cn2c(-c3cc(C(C)C)ccn3)nc3nc(-c4noc(=O)[nH]4)nc(N[C@H](C)C4CCC4)c32)CC1` [Example 18.20, 3-(6-{[(1R)-1-cyclobutylethyl]amino}-7-[(trans-4-ethylcyclohexyl)methyl]-8-[4-(1-methylethyl)pyridin-2-yl]-7H-purin-2-yl)-1,2,4-oxadiazol-5(4H)-one], for which the IC50 worked out at 0.0157 µM. Take `CC[C@H]1CC[C@H](Cn2c(N3CCOC[C@H]3c3ccccc3)nc3nc(C(=O)O)nc(N[C@H](C)C4CCC4)c32)CC1` [Example 18.21, 6-{[(1R)-1-cyclobutylethyl]amino}-7-[(trans-4-ethylcyclohexyl)methyl]-8-[(3R)-3-phenylmorpholin-4-yl]-7H-purine-2-carboxylic acid]: the IC50 was determined as 0.000548 µM.
